The record followed here is ChEMBL document CHEMBL2429826, “Design, synthesis, and evaluation of prodrugs of ertapenem” (ACS Med Chem Lett, 2013).

Data set [1] deals with Canis familiaris. Description: Bioavailability in Beagle dog assessed as ertapenem at 10 mg/kg, ID administered as infusion. The note with it: in vivo, other. In kind it is ADME, organism-based, Canis lupus familiaris.
Data set [2] can be described thus: Metabolic stability in human plasma assessed as compound remaining at 50 uM after 60 mins by LC-MS/MS analysis. In kind it is ADME, cell-free. The note with it: read-out: Stability.
Data set [3] is described as follows: Metabolic stability in rat plasma assessed as compound remaining at 50 uM after 60 mins by LC-MS/MS analysis. The settings on record: read-out: Stability. Format: ADME, cell-free.
Data set [4] is described as follows: Metabolic stability in dog plasma assessed as compound remaining at 50 uM after 60 mins by LC-MS/MS analysis. The settings on record: read-out: Stability. In kind it is ADME, cell-free, Canis lupus familiaris.
Data set [5] has as its system Canis familiaris. Briefly: AUC (0 to 8 hrs) in Beagle dog assessed as ertapenem at 10 mg/kg, ID administered as infusion. In kind it is ADME, organism-based, Canis lupus familiaris, Plasma. The note with it: in vivo, other. Also noted: time < 8 hr, dose 10 mg/kg, route intraduodenal.
Data set [6] in a line: Metabolic stability in monkey plasma assessed as compound remaining at 50 uM after 60 mins by LC-MS/MS analysis. Format: ADME, cell-free, Macaca mulatta. The settings on record: rhesus monkey, read-out: Stability.
The subject of data set [7] is Rattus norvegicus. Briefly: Bioavailability in Sprague-Dawley rat assessed as ertapenem at 10 mg/kg, ID administered as infusion. In kind it is ADME, organism-based. The note with it: in vivo, other.
Data set [8] has as its system Rattus norvegicus. Briefly: AUC (0 to 8 hrs) in Sprague-Dawley rat assessed as ertapenem at 10 mg/kg, ID administered as infusion. The settings on record: in vivo, other. Details: time < 8 hr, dose 10 mg/kg, route intraduodenal; call rule not given here. Format: ADME, organism-based, Plasma.
For data set [9], the system named is Rattus norvegicus. Description: AUC (0 to 8 hrs) in Sprague-Dawley rat assessed as (4R,5S,6S)-3-((3S,5S)-5-(3-(ethoxycarbonyl)phenylcarbamoyl)pyrrolidin-3-ylthio)-6-((R)-1-hydroxyethyl)-4-methyl-7-oxo-1-azabicyclo[3.2.0]hept-2-ene-2-carboxylic acid at 10 mg/kg, ID administered as infusion. In kind it is ADME, organism-based, Plasma. Also noted: time < 8 hr, dose 10 mg/kg, route intraduodenal. The note with it: in vivo, other, BLD = below limit of detection.

In data set [10] the test system is Canis familiaris. Briefly: AUC (0 to 8 hrs) in Beagle dog assessed as (4R,5S,6S)-3-((3S,5S)-5-(3-(ethoxycarbonyl)phenylcarbamoyl)pyrrolidin-3-ylthio)-6-((R)-1-hydroxyethyl)-4-methyl-7-oxo-1-azabicyclo[3.2.0]hept-2-ene-2-carboxylic acid at 10 mg/kg, ID administered as infusion. In kind it is ADME, organism-based, Canis lupus familiaris, Plasma. Details: time < 8 hr, dose 10 mg/kg, route intraduodenal. The settings on record: in vivo, other.

For data set [11], the system named is Canis familiaris. Description: AUC (0 to 8 hrs) in Beagle dog assessed as 3-((2S,4S)-4-((4R,5S,6S)-2-(ethoxycarbonyl)-6-((R)-1-hydroxyethyl)-4-methyl-7-oxo-1-azabicyclo[3.2.0]hept-2-en-3-ylthio)pyrrolidine-2-carboxamido)benzoic acid at 10 mg/kg, ID administered as infusion. Format: ADME, organism-based, Canis lupus familiaris, Plasma. Also noted: time < 8 hr, dose 10 mg/kg, route intraduodenal. The note with it: in vivo, other.

Data set [12] has as its system Rattus norvegicus. Briefly: AUC (0 to 8 hrs) in Sprague-Dawley rat assessed as 3-((2S,4S)-4-((4R,5S,6S)-2-(ethoxycarbonyl)-6-((R)-1-hydroxyethyl)-4-methyl-7-oxo-1-azabicyclo[3.2.0]hept-2-en-3-ylthio)pyrrolidine-2-carboxamido)benzoic acid at 10 mg/kg, ID administered as infusion. In kind it is ADME, organism-based, Plasma. Also noted: time < 8 hr, dose 10 mg/kg, route intraduodenal. The note with it: in vivo, other, BLD = below limit of detection.

Data set [13] has as its system Rattus norvegicus. Description: AUC (0 to 8 hrs) in Sprague-Dawley rat assessed as (4R,5S,6S)-3-((3S,5S)-5-(3-(ethoxycarbonyl)phenylcarbamoyl)pyrrolidin-3-ylthio)-6-((R)-1-hydroxyethyl)-4-methyl-7-oxo-1-azabicyclo[3.2.0]hept-2-ene-2-carboxylic acid at 4.4 mg/kg, ID administered as infusion. In kind it is ADME, organism-based, Plasma. Also noted: time < 8 hr, dose 4.4 mg/kg, route intraduodenal. The note with it: in vivo, other.

Data set [14] in a line: Apparent permeability of the compound in pig LLC-PK1 cells.
The test system of data set [15] is Rattus norvegicus. Description: AUC (0 to 8 hrs) in Sprague-Dawley rat assessed as 3-((2S,4S)-4-((4R,5S,6S)-2-(ethoxycarbonyl)-6-((R)-1-hydroxyethyl)-4-methyl-7-oxo-1-azabicyclo[3.2.0]hept-2-en-3-ylthio)pyrrolidine-2-carboxamido)benzoic acid at 4.4 mg/kg, ID administered as infusion. Also noted: time < 8 hr, dose 4.4 mg/kg, route intraduodenal. In kind it is ADME, organism-based, Plasma. The settings on record: in vivo, other.

For data set [16], the system named is Rattus norvegicus. Briefly: AUC (0 to 8 hrs) in Sprague-Dawley rat assessed as ertapenem at 4.4 mg/kg, ID administered as infusion. Also noted: time < 8 hr, dose 4.4 mg/kg, route intraduodenal. The settings on record: in vivo, other. Format: ADME, organism-based, Plasma.
Data set [17] relates to Rattus norvegicus. Description: Bioavailability in Sprague-Dawley rat assessed as ertapenem at 4.4 mg/kg, ID administered as infusion. The settings on record: in vivo, other. In kind it is ADME, organism-based.
Data set [18] has as its system Hepatocyte. Description: Drug metabolism in human hepatocytes assessed as tebipenem level after 15 mins. The settings on record: 0.25 h. In kind it is ADME, cell-based.
Data set [19] can be described thus: Drug metabolism in monkey liver microsomes assessed as tebipenem level after 15 mins. In kind it is ADME, Macaca mulatta, Microsome. The note with it: rhesus monkey, 0.25 h. For orientation: Microsomes from liver hold many membrane-bound enzymes, among them those of drug oxidation.
The test system of data set [20] is Hepatocyte. Description: Drug metabolism in rat hepatocytes assessed as tebipenem level after 15 mins. In kind it is ADME, cell-based. The note with it: 0.25 h.
Data set [21] has as its system Liver microsomes. Briefly: Drug metabolism in rat liver microsomes assessed as tebipenem level after 15 mins. In kind it is ADME, Microsome. The note with it: 0.25 h.
The nature of data set [22]: Drug metabolism in dog hepatocytes assessed as tebipenem level after 15 mins. The settings on record: 0.25 h. In kind it is ADME, cell-based, Canis lupus familiaris, Hepatocyte.
Data set [23] can be described thus: Drug metabolism in monkey hepatocytes assessed as tebipenem level after 15 mins. Format: ADME, cell-based, Macaca mulatta, Hepatocyte. The note with it: rhesus monkey, 0.25 h.
The nature of data set [24]: Drug metabolism in dog liver microsomes assessed as tebipenem level after 15 mins. In kind it is ADME, Canis lupus familiaris, Microsome. The settings on record: 0.25 h.
Data set [25] concerns Liver microsomes. Description: Drug metabolism in human liver microsomes assessed as tebipenem level after 15 mins. Format: ADME, Microsome. The settings on record: 0.25 h.
The nature of data set [26]: AUC (0 to 8 hrs) in Sprague-Dawley rat at 1 mg/kg, iv. The settings on record: plasma. Format: ADME, organism-based. Also noted: time < 8 hr, dose 1 mg/kg, route intravenous.
A short description of data set [27]: AUC (0 to 8 hrs) in Beagle dog at 1 mg/kg, iv. Format: ADME, organism-based, Canis lupus familiaris. Details: time < 8 hr, dose 1 mg/kg, route intravenous. The note with it: plasma.
Data set [28] can be described thus: AUC (0 to 8 hrs) in Sprague-Dawley rat at 10 mg/kg, po. The settings on record: plasma. Details: time < 8 hr, dose 10 mg/kg, route oral. In kind it is ADME, organism-based.
Data set [29] is described as follows: AUC (0 to 8 hrs) in Sprague-Dawley rat at 10 mg/kg, ID administered as infusion. Details: time < 8 hr, dose 10 mg/kg, route intraduodenal. Format: ADME, organism-based. The settings on record: plasma.
Data set [30] in a line: Oral bioavailability in Sprague-Dawley rat at 10 mg/kg. The settings on record: in vivo. In kind it is ADME, organism-based.

In the case of `C[C@@H](O)[C@H]1C(=O)N2C3=C(S[C@@H]4CN[C@@H](C4)C(=O)Nc4cccc(c4)C(=O)OCCCOC3=O)[C@H](C)[C@H]12`, the F with Canis familiaris [1] is 0.53%. Besides, the remaining at 1 h, 50 µM was found to be 17% in [2], 0% in [3], 79% in data set [4] and 49% in [6]. The AUC with Canis familiaris [5] came out at 0.44 µM·h.

`Cc1oc(=O)oc1COC(=O)C1=C(S[C@@H]2CN[C@H](C(=O)Nc3cccc(C(=O)OCc4oc(=O)oc4C)c3)C2)[C@H](C)[C@@H]2[C@@H]([C@@H](C)O)C(=O)N12`: the remaining at 1 h, 50 µM amounted to 1% in [2], 1% in [3], 3% in data set [4] and 2% in data set [6]. The F in the data set on Rattus norvegicus [7] is listed as 0.77%. Further, the AUC with Rattus norvegicus [8] is 0.3 µM·h.

Regarding `C[C@@H](O)[C@H]1C(=O)N2C(C(=O)OCOC(=O)C(C)(C)C)=C(S[C@@H]3CN[C@H](C(=O)Nc4cccc(C(=O)OCOC(=O)C(C)(C)C)c4)C3)[C@H](C)[C@H]12`, the F is listed as 3% in the data set on Canis familiaris [1] and 0.37% with Rattus norvegicus [7]. The remaining at 1 h, 50 µM in [2] stood at 36%; in [3], 2%; in [4], 37%. For the same compound, the AUC result in the data set with Rattus norvegicus [9] was “BLD”; with Canis familiaris [10] (BLD = below limit of detection), “BLD”; with Canis familiaris [11] it was 0.04 µM·h; in the data set with Rattus norvegicus [12], “BLD”; with Canis familiaris [5], 1.81 µM·h; in the data set on Rattus norvegicus [8], 0.2 µM·h.

For the compound `CCOC(=O)C1=C(S[C@@H]2CN[C@H](C(=O)Nc3cccc(C(=O)OCC)c3)C2)[C@H](C)[C@@H]2[C@@H]([C@@H](C)O)C(=O)N12`, the area under the curve (AUC) in the data set on Rattus norvegicus [13] came out at 0.42 µM·h; with Rattus norvegicus [15], 0.07 µM·h; in the data set on Canis familiaris [10], 3.34 µM·h; in the data set on Rattus norvegicus [16] it was 1.54 µM·h; in the data set with Canis familiaris [11], 2.17 µM·h; with Canis familiaris [5], 14.3 µM·h. For the same compound, the apparent permeability (Papp) in data set [14] was found to be 13 ×10⁻⁶ cm/s. Also, the F in the data set with Canis familiaris [1] is 18.1%; with Rattus norvegicus [17], 4.98%. In addition, the remaining at 1 h, 50 µM stood at 5% in data set [2], 0% in data set [3], 75% in [4] and 77% in [6].

Regarding `C[C@@H](O)[C@H]1C(=O)N2C(C(=O)O)=C(SC3CN(C4=NCCS4)C3)[C@H](C)[C@H]12` [TEBIPENEM], the Papp in data set [14] is 0.7 ×10⁻⁶ cm/s.

Regarding `C[C@@H](O)[C@H]1C(=O)N2C(C(=O)OCOC(=O)C(C)(C)C)=C(SC3CN(C4=NCCS4)C3)[C@H](C)[C@H]12` [TEBIPENEM PIVOXIL], the Drug metabolism result (in the data set on Hepatocyte [18]; in data set [19]; with Hepatocyte [20]; in the data set with Liver microsomes [21]; in data set [22]; in data set [23]) was “Active” in each case. The Drug metabolism entry (in data set [24]; with Liver microsomes [25]) was “Active” throughout. Further, the remaining at 1 h, 50 µM in [2] is 0%; in data set [3], 0%; in data set [4], 25%; in [6] it was 0%.

Regarding `C[C@@H](O)[C@H]1C(=O)N2C(C(=O)O)=C(S[C@@H]3CN[C@H](C(=O)Nc4cccc(C(=O)O)c4)C3)[C@H](C)[C@H]12`, the Papp in [14] was determined as 0.5 ×10⁻⁶ cm/s. Further, the AUC(0-t) at 8 h in data set [26] was determined as 7.84 µM·h; in data set [27], 8.9 µM·h; in data set [28], 0.39 µM·h; in data set [29], 0.48 µM·h. For the same compound, in [30], the bioavailability came to 0.53%.

For orientation: AUC means the area under the concentration-time curve, a measure of exposure. As usually defined, the Papp is the rate of passage across a membrane or cell layer, normalised by area and donor concentration. Broadly, the AUC(0-t) is the area under the concentration-time curve up to a stated or last time point. For orientation: bioavailability means dose-corrected exposure relative to a reference, in per cent.
